# Laboratory results taken from patent US20110045101A1, “FUNGICIDAL SUBSTITUTED AZOLES” (E.I. Du Pont De Nemours and Company, priority 2009, published 2011).
# Marks after values point to notes of the source that are not given here.
# How the values were obtained:
# Assay type in all cases: in vivo
# Conditions in all cases: 100 = 100% disease control
# Botrytis cinerea = assay: Test C: tomato Botrytis on tomato seedlings, sprayed the day before inoculation, visual disease rating
# Summary of the method: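 Tomato seedlings sprayed to run-off with compound suspended in acetone/water with 250 ppm Trem 014 surfactant, at 200 ppm (≈500 g/ha) or 40 ppm where marked, one day before Botrytis cinerea inoculation. Disease rated visually.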
# Septoria tritici = assay: Test G: wheat leaf blotch on wheat seedlings, sprayed the day before inoculation, visual disease rating
# Summary of the method: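 Spray to run-off, 200 ppm (≈500 g/ha; starred = 40 ppm), acetone/water 50/50 + 250 ppm Trem® 014. Spore inoculation +1 d. 24° C saturated 48 h → 20° C 19 d. Visual rating.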
# [1] = tested on: Erysiphe graminis f. sp. tritici; assay: Test J: wheat powdery mildew on wheat seedlings, sprayed the day before inoculation, visual disease rating
# Summary of the method: (§1)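 Compounds were dissolved in acetone (3% of final volume), then suspended in 50/50 acetone/water with 250 ppm Trem 014 surfactant and sprayed to run-off on test plants. A 200 ppm suspension equals 500 g/ha. Ratings are at 200 ppm unless flagged as 40 ppm.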
# Septoria nodorum = assay: Test F: wheat glume blotch on wheat seedlings, sprayed the day before inoculation, visual disease rating
# Summary of the method: as §1
# [2] = tested on: Puccinia recondita f. sp. tritici; assay: Test I: wheat leaf rust on wheat seedlings, sprayed the day before inoculation, visual disease rating
# Summary of the method: as §1
# Alternaria solani = assay: Test D: tomato early blight, sprayed the day before inoculation, visual disease rating
# Summary of the method: as §1
# [3] = 200 ppm, 0 = no control relative to controls
# [4] = 40 ppm (marked *), 0 = no control
Structure (SMILES),Test C disease control rating (Botrytis cinerea; [3]),Test G disease control rating (Septoria tritici; [3]),"Test J disease control rating [1, 3]",Test F disease control rating (Septoria nodorum; [3]),"Test I disease control rating [2, 3]",Test D disease control rating (Alternaria solani; [3]),also measured
Cc1nn(C)c(-c2c(F)cccc2Cl)c1-c1ccc(Cl)c(F)c1 [compound 63],0%,33%,100%,0%,41%,0%,–
Fc1cc(F)c(-n2c(Br)nc(Br)c2-c2ccc(Cl)cc2)c(F)c1 [compound 218],–,–,–,–,–,–,"Test C disease control rating (Botrytis cinerea; [4]): 99* %; Test G disease control rating (Septoria tritici; [4]): 91* %; Test J disease control rating [1, 4]: 73* %; Test F disease control rating (Septoria nodorum; [4]): 0* %; Test I disease control rating [2, 4]: 80* %; Test D disease control rating (Alternaria solani; [4]): 99* %"
COc1cc(F)c(-c2c(Cl)ncn2-c2ccc(F)cc2)c(F)c1 [compound 136],99%,96%,100%,99%,100%,100%,–
Fc1cccc(Cl)c1-c1c(Cl)nc(C(F)(F)F)n1-c1ccc(Cl)cc1 [compound 90],0%,0%,0%,0%,54%,0%,–
COc1ccc(F)c(-c2c(Cl)nc(Br)n2-c2ccc(C)cc2)c1F [compound 281],–,–,–,–,–,–,"Test C disease control rating (Botrytis cinerea; 200 ppm, 0 = no control): 100%; Test G disease control rating (Septoria tritici; 200 ppm, 0 = no control): 96%; Test J disease control rating ([1]; 200 ppm, 0 = no control): 100%; Test F disease control rating (Septoria nodorum; 200 ppm, 0 = no control): 97%; Test I disease control rating ([2]; 200 ppm, 0 = no control): 100%; Test D disease control rating (Alternaria solani; 200 ppm, 0 = no control): 100%"
Fc1cc(-n2c(Cl)nc(Cl)c2-c2c(F)ccc(F)c2F)ccc1Cl [compound 135],99%,93%,100%,0%,100%,100%,–
COc1cc(F)c(-n2cnc(Cl)c2-c2ccc(Cl)cc2)c(F)c1 [compound 277],–,–,–,–,–,–,"Test C disease control rating (Botrytis cinerea; [4]): 99* %; Test G disease control rating (Septoria tritici; [4]): 89* %; Test J disease control rating [1, 4]: 94* %; Test F disease control rating (Septoria nodorum; [4]): 0* %; Test I disease control rating [2, 4]: 88* %; Test D disease control rating (Alternaria solani; [4]): 0* %"
COc1cc(F)c(-n2c(Br)nc(Br)c2-c2ccc(Cl)cc2)c(F)c1 [compound 242],–,–,–,–,–,–,"Test C disease control rating (Botrytis cinerea; [4]): 99* %; Test G disease control rating (Septoria tritici; [4]): 95* %; Test J disease control rating [1, 4]: 92* %; Test F disease control rating (Septoria nodorum; [4]): 51* %; Test I disease control rating [2, 4]: 89* %; Test D disease control rating (Alternaria solani; [4]): 95* %"
Cc1nn(C)c(-c2c(F)cc(F)cc2F)c1-c1cccc(F)c1 [compound 70],71%,0%,0%,0%,0%,0%,–
COc1cc(F)c(-c2c(Cl)nc(I)n2-c2ccc(Cl)cc2)c(F)c1 [compound 245],–,–,–,–,–,–,"Test C disease control rating (Botrytis cinerea; 200 ppm, 0 = no control): 100%; Test G disease control rating (Septoria tritici; 200 ppm, 0 = no control): 97%; Test J disease control rating ([1]; 200 ppm, 0 = no control): 99%; Test F disease control rating (Septoria nodorum; 200 ppm, 0 = no control): 100%; Test I disease control rating ([2]; 200 ppm, 0 = no control): 95%; Test D disease control rating (Alternaria solani; 200 ppm, 0 = no control): 99%"
C=Cc1nc(C)n(-c2ccc(Cl)cc2)c1-c1c(F)cccc1F [compound 217],–,–,–,–,–,–,"Test C disease control rating (Botrytis cinerea; [4]): 33* %; Test G disease control rating (Septoria tritici; [4]): 13* %; Test J disease control rating [1, 4]: 0* %; Test F disease control rating (Septoria nodorum; [4]): 0* %; Test I disease control rating [2, 4]: 0* %; Test D disease control rating (Alternaria solani; [4]): 57* %"
Fc1cc(F)cc(-n2c(Br)nc(Cl)c2-c2c(F)cccc2F)c1 [compound 54],92%,87%,91%,0%,99%,24%,–
Fc1cc(-n2c(Br)nc(Cl)c2-c2c(F)ccc(F)c2F)ccc1Cl [compound 143],99%,100%,100%,100%,100%,100%,–
COc1cc(F)c(-c2c(Cl)nc(Cl)n2-c2ccc(Cl)c(F)c2)c(F)c1 [compound 240],–,–,–,–,–,–,"Test C disease control rating (Botrytis cinerea; 200 ppm, 0 = no control): 100%; Test G disease control rating (Septoria tritici; 200 ppm, 0 = no control): 97%; Test J disease control rating ([1]; 200 ppm, 0 = no control): 100%; Test F disease control rating (Septoria nodorum; 200 ppm, 0 = no control): 100%; Test I disease control rating ([2]; 200 ppm, 0 = no control): 100%; Test D disease control rating (Alternaria solani; 200 ppm, 0 = no control): 100%"
Fc1ccc(-n2c(Br)nc(Cl)c2-c2c(F)cccc2F)cc1 [compound 72],96%,97%,100%,92%,99%,100%,–
Fc1ccc(-n2cnc(Cl)c2-c2c(F)cc(F)cc2F)cc1 [compound 137],94%,98%,97%,0%,55%,100%,–
"COc1ccc(F)c(-c2c(Br)ncn2-c2ccc(F)cc2)c1F [Compound 450, 4-bromo-5-(2,6-difluoro-3-methoxyphenyl)-1-(4-fluorophenyl)-1H-imidazole]",–,–,–,–,–,–,"pest or weed control at 200 ppm (Botrytis cinerea; Botrytis cinerea, 120 h, 200 ppm, 0 = no control relative to controls): 97%; pest or weed control at 200 ppm (Septoria tritici; Zymoseptoria tritici, 504 h, 200 ppm, 0 = no control relative to controls): 97%; pest or weed control at 200 ppm ([1]; Blumeria graminis, 168 h, 200 ppm, 0 = no control relative to controls): 100%; pest or weed control at 200 ppm (Septoria nodorum; Parastagonospora nodorum, 264 h, 200 ppm, 0 = no control relative to controls): 99%; pest or weed control at 200 ppm ([2]; Puccinia recondita, 168 h, 200 ppm, 0 = no control relative to controls): 100%; pest or weed control at 200 ppm (Alternaria solani; Alternaria solani, 168 h, 200 ppm, 0 = no control relative to controls): 100%"
COc1nc(Cl)c(-c2c(Cl)nc(Cl)n2-c2ccc(Cl)c(F)c2)s1 [compound 456],0%,88%,43%,0%,0%,0%,–
Fc1ccc(-c2c(Cl)nc(Br)n2-c2ccc(Cl)c(F)c2)c(Cl)c1 [compound 202],–,–,–,–,–,–,"Test C disease control rating (Botrytis cinerea; 200 ppm, 0 = no control): 91%; Test G disease control rating (Septoria tritici; 200 ppm, 0 = no control): 97%; Test J disease control rating ([1]; 200 ppm, 0 = no control): 100%; Test F disease control rating (Septoria nodorum; 200 ppm, 0 = no control): 98%; Test I disease control rating ([2]; 200 ppm, 0 = no control): 98%; Test D disease control rating (Alternaria solani; 200 ppm, 0 = no control): 61%"
Fc1cccc(F)c1-n1cnc(Cl)c1-c1ccc(Cl)cc1 [compound 163],–,–,–,–,–,–,"Test C disease control rating (Botrytis cinerea; [4]): 0* %; Test G disease control rating (Septoria tritici; [4]): 10* %; Test J disease control rating [1, 4]: 0* %; Test F disease control rating (Septoria nodorum; [4]): 0* %; Test I disease control rating [2, 4]: 0* %; Test D disease control rating (Alternaria solani; [4]): 0* %"
Cc1nc(Cl)c(-c2c(F)cccc2F)n1-c1ccc(OC(F)(F)F)cc1 [compound 81],81%,93%,100%,69%,98%,100%,–
Cc1nc(Br)n(-c2c(F)cccc2F)c1-c1ccc(Cl)cc1 [compound 216],–,–,–,–,–,–,"Test C disease control rating (Botrytis cinerea; [4]): 99* %; Test G disease control rating (Septoria tritici; [4]): 96* %; Test J disease control rating [1, 4]: 94* %; Test F disease control rating (Septoria nodorum; [4]): 0* %; Test I disease control rating [2, 4]: 93* %; Test D disease control rating (Alternaria solani; [4]): 100* %"
